According to patent US20230107216A1, “PANTETHEINE DERIVATIVES AND USES THEREOF” (Comet Therapeutics, Inc., priority 2018, published 2023):
Like-named read-outs stand apart in the source and are kept apart here.

What was measured:
[1] = tested on: Methylmalonic Acidemia (MMA) primary fibroblasts GM01673; assay: Mitochondrial respiration, XFe96 Extracellular Flux Analyzer (OCR/ECAR), MMA fibroblasts GM01673; format: cell-based; settings: Homo sapiens, Fibroblast, 10 μM
Procedure, shortened: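 Primary fibroblasts (20000 cells/well) were held 24 h in supplemented DMEM before Seahorse OCR/ECAR profiling. Compounds at 10 to 50 μM or 0.1% DMSO were injected after baseline, then oligomycin 1 μg/ml, FCCP, and rotenone/antimycin A 0.5 μM. Values were normalized to Hoechst nuclear counts, baselined to pre-compound, and expressed relative to vehicle.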

[2] = tested on: Propionic Acidemia (PA) primary fibroblasts Tsi 6337; assay: Mitochondrial respiration, XFe96 Extracellular Flux Analyzer (OCR/ECAR), PA fibroblasts Tsi 6337; format: cell-based; settings: Homo sapiens, Fibroblast, read-out: Increase in Maximal Respiratory Capacity AUC
Protocol: The effect of the compounds of the present disclosure on mitochondrial respiration was measured with a XFe96 Extracellular Flux Analyzer (Seahorse Bioscience, Agilent Technologies) and Oxygen consumption Rate (OCR) and Extracellular acidification rate (ECAR) determined.
Cell culture and treatments. Primary adherent fibroblasts were cultured in minimum essential medium (MEM) (Gibco, 25030081) supplemented with 2 mM L-Glutamine (Gibco, 25030081), 15% fetal bovine serum (FBS) (Gibco, 26400044) and 1% penicillin/streptomycin (Gibco, 5140122) at 37° C. and 5% CO2. Cells were collected for either passaging or experiment at ˜70-80% confluence. Cells were obtained by trypsinization and seeded at 20000 cells/well in cell culture microplates (Seahorse Bioscience, 101085-004) and allowed to adhere for 16 hours in culture media.
By profiling different primary cells and/or optimizing their culture media or environmental components one can select cell lines and/or conditions that are appropriate for the biological or disease model. In the present example, 24 hours prior to OCR and ECAR profiling, media was changed to Dulbecco's Modified Eagle Medium (DMEM, Agilent Seahorse 103575-100) with the appropriate supplements for the different primary cells (10 mM glucose, 2 mM L-glutamine, 1 mM pyruvate, 10% FBS; 1 mM glucose, 2 mM L-glutamine, 1 mM pyruvate, 10% FBS; 10 mM glucose, 10% FBS; 5 mM glucose 10% FBS; 1 mM glucose 10% FBS). Cells used in this example were: Propionic Acidemia (PA) (GM00371, GM03590 Coriell Institute for Medical Research, Tsi 6337, Tsi 4626, Tsi 3618 Trans-Hit Bio), Methylmalonic Acidemia (MMA) (GM01673, Coriell Institute for Medical Research, Tsi 5224 Trans-Hit Bio), Branched chain ketoacid dehydrogenase kinase (BCKDK) (GM00612, GM00649 Coriell Institute for Medical Research), Subnormal activation of pyruvate dehydrogenase complex (PDH) (GM01503 Coriell Institute for Medical Research), Very long-chain acyl-CoA dehydrogenase (VLCAD) (GM17475), Leigh Syndrome (LS) (GM03672, GM13411 Coriell Institute for Medical Research), Pyruvate Carboxylase Deficiency (PC) (GM00444 Coriell Institute for Medical Research), Glutaric Acidemia-I (GA) (GM10653), Friedreich's Ataxia (FXN) (GM04078 Coriell Institute for Medical Research, Huntington's disease (HD) (GM21756 Coriell Institute for Medical Research), Ornithine Transcarbamylase Deficiency (OTC) (GM12756 Coriell Institute for Medical Research), Kearns-Sayre Syndrome (KSS) (GM06225 Coriell Institute for Medical Research).
One hour before the assay, the cells were washed with freshly prepared unbuffered serum free-Seahorse XF Assay medium (Seahorse Bioscience, North America, USA, 103575-100) with the same supplements as for the previous 24 hour incubation.
After baseline measurements of OCR, cells were challenged with compounds of the present disclosure at different concentrations (10 to 50 μM) or vehicle (DMSO, 0.1%) and a post-compound baseline was recorded. OCR was measured after sequentially adding to each well 1 μg/ml oligomycin (inhibitor of ATP synthase Sigma-Aldrich, 753531), then maximal OCR was determined with carbonyl cyanide 4-(trifluoromethoxy) phenylhydrazone (FCCP, Sigma-Aldrich, C2920), (uncoupler of oxidative phosphorylation) and 0.5 μM of rotenone (Sigma-Aldrich, R8875) plus antimycin A (Sigma-Aldrich, A8674) (inhibitors of mitochondrial complex I and III) for determination of rotenone-antimycin insensitive respiration together with Hoechst for nuclear staining in situ when normalized to cell counts. After the analysis and nuclear staining, the XFp microplate was transferred to the Cytation 5, and the nuclear images were captured, the individual nuclei were identified and counted by BioTek Gen5 software. Data were expressed as pmol of O2 per minute and normalized by nuclear staining and baselined to pre-compound addition.
Assay conditions were as stated below.
Assay specifics on assay conditions are indicated below when readouts were normalized to cell counts. […]

[3] = assay condition D (1 mM glucose, 10% FBS), read-out: Increase in Maximal Respiratory Capacity AUC
[4] = PA Tsi 6337, assay condition A (10 mM glucose, 2 mM L-glutamine, 1 mM pyruvate, 10% FBS)
[5] = PA Tsi 6337, assay condition D (1 mM glucose, 10% FBS)
[6] = assay condition A (10 mM glucose, 2 mM L-glutamine, 1 mM pyruvate, 10% FBS), read-out: Increase in Maximal Respiratory Capacity AUC

COC(=O)CC(SCCNC(=O)CCNC(=O)[C@H](O)C(C)(C)COC(C)=O)C(=O)OC (stereo partly drawn) [Compound 149, 1,4-dimethyl 2-[(2-[3-[(2R)-4-(acetyloxy)-2-hydroxy-3,3-dimethylbutanamido]propanamido]ethyl)sulfanyl]butanedioate]
activation at 10 µM [1, 3]: ≥ 10%

CC(C)(COC(=O)CCC(=O)O)[C@@H](O)C(=O)NCCC(=O)NCCS [Compound 1310, (R)-4-(3-hydroxy-4-((3-((2-mercaptoethyl)amino)-3-oxopropyl)amino)-2,2-dimethyl-4-oxobutoxy)-4-oxobutanoic acid]
activation at 10 µM [2, 4]: ≥ 10%

COC(=O)CC[C@H](N)C(=O)SCCNC(=O)CCNC(=O)[C@H](O)C(C)(C)CO [Compound 411]
activation at 10 µM [2, 4]: ≥ 10%
activation at 10 µM [2, 5]: ≥ 10%

CC(C)(CO)[C@@H](OC(=O)CCC(=O)O)C(=O)NCCC(=O)NCCS [Compound 1311, (R)-4-((4-hydroxy-1-((3-((2-mercaptoethyl)amino)-3-oxopropyl)amino)-3,3-dimethyl-1-oxobutan-2-yl)oxy)-4-oxobutanoic acid]
activation at 10 µM [2, 4]: ≥ 10%

CC(=O)SCCNC(=O)CCNC(=O)[C@H](O)C(C)(C)COC(=O)[C@H](C)N [Compound 502, (3R)-3-[(2-[[2-(acetylsulfanyl)ethyl]carbamoyl]ethyl)carbamoyl]-3-hydroxy-2,2-dimethylpropyl (2S)-2-aminopropanoate]
activation at 10 µM [1, 6]: ≥ 10%

COC(=O)/C=C/C(=O)SCCNC(=O)CCNC(=O)[C@H](O)C(C)(C)COP(=O)(O)O [Compound 73, methyl (R,E)-4-((2-(3-(2-hydroxy-3,3-dimethyl-4-(phosphonooxy)butanamido)propanamido)ethyl)thio)-4-oxobut-2-enoate]
activation at 10 µM [2, 5]: ≥ 10%

CC(C)(CO)[C@@H](O)C(=O)NCCC(=O)NCCSC(=O)CCCO [Compound 1304, (2R)-2,4-dihydroxy-N-[2-([2-[(4-hydroxybutanoyl)sulfanyl]ethyl]carbamoyl)ethyl]-3,3-dimethylbutanamide]
activation at 10 µM [1, 6]: ≥ 10%

COC(=O)C(C)C(=O)SCCNC(=O)CCNC(=O)[C@H](O)C(C)(C)CO (stereo partly drawn) [Compound 405]
activation at 10 µM [2, 5]: ≥ 10%

CC(C)(CO)[C@@H](O)C(=O)NCCC(=O)NCCSC(CC(=O)OCC[N+](C)(C)C)C(=O)O (stereo partly drawn) [Compound 51, [2-([3-carboxy-3-[(2-[3-[(2R)-2,4-dihydroxy-3,3-dimethylbutanamido]propanamido]ethyl)sulfanyl]propanoyl]oxy)ethyl]trimethylazanium]
activation at 10 µM [1, 3]: ≥ 10%

CC(=O)SCCNC(=O)CCNC(=O)[C@H](O)C(C)(C)COC(=O)CCC(=O)O [Compound 1242, (R)-12-hydroxy-13,13-dimethyl-2,7,11,16-tetraoxo-15-oxa-3-thia-6,10-diazanonadecan-19-oic acid]
activation at 10 µM [2, 4]: ≥ 10%

CC(C)(CO)[C@@H](O)C(=O)NCCC(=O)NCCSC(=O)CCCN [Compound 370, (2R)—N-[2-([2-[(4-aminobutanoyl)sulfanyl]ethyl]carbamoyl)ethyl]-2,4-dihydroxy-3,3-dimethylbutanamide]
activation at 10 µM [1, 3]: ≥ 10%

CC(C)(CO)[C@@H](O)C(=O)NCCC(=O)NCCSC(=O)CC(=O)CCC(=O)O [Compound 2, 6-[(2-[3-[(2R)-2,4-dihydroxy-3,3-dimethylbutanamido]propanamido]ethyl)sulfanyl]-4,6-dioxohexanoic acid]
activation at 10 µM ([1]; assay condition D (1 mM glucose, 10% FBS), read-out: Increase in Spare Capacity AUC): ≥ 50%

C[C@H](CC(=O)SCCNC(=O)CCNC(=O)[C@H](O)C(C)(C)CO)OC(=O)CCC(=O)O [Compound 1243, 4-{[(2R)-4-[(2-{3-[(2R)-2,4-dihydroxy-3,3-dimethylbutanamido]propanamido}ethyl)sulfanyl]-4-oxobutan-2-yl]oxy}-4-oxobutanoic acid]
activation at 10 µM [2, 4]: ≥ 10%

CCCCCCC(=O)SCCNC(=O)CCNC(=O)[C@H](O)C(C)(C)CO [Compound 372, (2R)—N-(2-[[2-(heptanoylsulfanyl)ethyl]carbamoyl]ethyl)-2,4-dihydroxy-3,3-dimethylbutanamide]
activation at 10 µM ([1]; assay condition A (10 mM glucose, 2 mM L-glutamine, 1 mM pyruvate, 10% FBS), read-out: Increase in Spare Capacity AUC): ≥ 10%

CC1(CC(=O)SCCNC(=O)CCNC(=O)[C@H](O)C(C)(C)CO)OCCO1 [Compound 1252, (R)—S-(2-(3-(2,4-dihydroxy-3,3-dimethylbutanamido)propanamido)ethyl)-2-(2-methyl-1,3-dioxolan-2-yl)ethanethioate]
activation at 10 µM [2, 4]: ≥ 10%

CC(C)(CO)[C@@H](O)C(=O)NCCC(=O)NCCSC(=O)C1CCC(=O)N1 (stereo partly drawn) [Compound 1227, S-2-{3-[(R)-2,4-dihydroxy-3,3-dimethylbutyrylamino]propionylamino}ethyl 5-oxo-2-pyrrolidinecarbothioate]
activation at 10 µM [2, 4]: ≥ 10%

CCC(C)C(=O)CC(=O)SCCNC(=O)CCNC(=O)[C@H](O)C(C)(C)CO (stereo partly drawn) [Compound 1240, S-(2-(3-((R)-2,4-dihydroxy-3,3-dimethylbutanamido)propanamido)ethyl) 4-methyl-3-oxohexanethioate]
activation at 10 µM [2, 5]: ≥ 10%
